Source: patent US12497365B2, “4-pyridinyl formamide compound or derivative thereof, preparation method therefor, herbicidal composition and use thereof” (Qingdao Kingagroot Chemical Compound Co., Ltd., priority 2019, dated 2025)

Test system: Abutilon theophrasti
Assay: Weeding effect in post-emergence stage
Format: in vivo
Conditions: active ingredient 2000 g/ha, 3 weeks after application, fresh weight control rate
In short: (§1)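 Weeds sown in soil-filled pots under 0.5-2 cm cover were grown in a greenhouse and sprayed at the 2-3 leaf stage, 2 weeks after sowing. Compounds in acetone with Tween 80 and 1.5 liter/ha methyl oleate concentrate were applied at 2000, 1000, 500, 250 or 125 g/ha. Fresh weight control rate was scored after 3 weeks.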

SMILES | Weeding effect, activity level (growth control rate), Abutilon theophrasti
C=CCc1c(C(=O)Nc2nnnn2C)ccnc1-c1ccc(F)cc1 [Compound 1-219] | 5 (Level 5: growth control rate is above 85%)
Cn1nnnc1NC(=O)c1ccnc(-c2ccc(C(=O)OC(C)(C)C)cc2)c1Cl [Compound 1-41] | 5 (Level 5: growth control rate is above 85%)
Cn1nnnc1NC(=O)c1ccnc(-c2cc(C(=O)O)cc([N+](=O)[O-])c2)c1Cl [Compound 1-100] | 5 (Level 5: growth control rate is above 85%)
Cn1nnnc1NC(=O)c1ccnc(-c2ccc(F)cc2Cl)c1Cl [Compound 1-94] | 5 (Level 5: growth control rate is above 85%)
CC(=O)c1ccc(-c2nccc(C(=O)Nc3nnnn3C)c2Cl)s1 [Compound 1-191] | 5 (Level 5: growth control rate is above 85%)
Cn1nnnc1NC(=O)c1ccnc(-c2ccccc2[N+](=O)[O-])c1Cl [Compound 1-38] | 5 (Level 5: growth control rate is above 85%)
Cn1nnnc1NC(=O)c1ccnc(-c2ccc(C#N)nn2)c1Cl [Compound 1-155] | 5 (Level 5: growth control rate is above 85%)
Cn1nnnc1NC(=O)c1ccnc(-c2cccc(Br)c2F)c1Cl [Compound 1-97] | 5 (Level 5: growth control rate is above 85%)
Cn1nnnc1NC(=O)c1ccnc(-c2ccc(Cl)c(Cl)c2)c1Cl [Compound 1-88] | 5 (Level 5: growth control rate is above 85%)

Test system: Amaranthus retroflexus L.
Assay: Weeding effect in post-emergence stage
Format: in vivo
Conditions: active ingredient 2000 g/ha, 3 weeks after application, fresh weight control rate
In short: as §1

SMILES | Weeding effect, activity level (growth control rate), Amaranthus retroflexus L.
C=CCc1c(C(=O)Nc2nnnn2C)ccnc1-c1ccc(F)cc1 [Compound 1-219] | 5 (Level 5: growth control rate is above 85%)
Cn1nnnc1NC(=O)c1ccnc(-c2ccc(C(=O)OC(C)(C)C)cc2)c1Cl [Compound 1-41] | 5 (Level 5: growth control rate is above 85%)
Cn1nnnc1NC(=O)c1ccnc(-c2cc(C(=O)O)cc([N+](=O)[O-])c2)c1Cl [Compound 1-100] | 5 (Level 5: growth control rate is above 85%)
Cn1nnnc1NC(=O)c1ccnc(-c2ccc(F)cc2Cl)c1Cl [Compound 1-94] | 5 (Level 5: growth control rate is above 85%)
CC(=O)c1ccc(-c2nccc(C(=O)Nc3nnnn3C)c2Cl)s1 [Compound 1-191] | 5 (Level 5: growth control rate is above 85%)
Cn1nnnc1NC(=O)c1ccnc(-c2ccccc2[N+](=O)[O-])c1Cl [Compound 1-38] | 5 (Level 5: growth control rate is above 85%)
Cn1nnnc1NC(=O)c1ccnc(-c2ccc(C#N)nn2)c1Cl [Compound 1-155] | 5 (Level 5: growth control rate is above 85%)
Cn1nnnc1NC(=O)c1ccnc(-c2cccc(Br)c2F)c1Cl [Compound 1-97] | 5 (Level 5: growth control rate is above 85%)
Cn1nnnc1NC(=O)c1ccnc(-c2ccc(Cl)c(Cl)c2)c1Cl [Compound 1-88] | 5 (Level 5: growth control rate is above 85%)

Test system: Chenopodium album
Assay: Weeding effect in post-emergence stage
Format: in vivo
Conditions: active ingredient 2000 g/ha, 3 weeks after application, fresh weight control rate
In short: as §1

SMILES | Weeding effect, activity level (growth control rate), Chenopodium album
C=CCc1c(C(=O)Nc2nnnn2C)ccnc1-c1ccc(F)cc1 [Compound 1-219] | 5 (Level 5: growth control rate is above 85%)
Cn1nnnc1NC(=O)c1ccnc(-c2ccc(C(=O)OC(C)(C)C)cc2)c1Cl [Compound 1-41] | 5 (Level 5: growth control rate is above 85%)
Cn1nnnc1NC(=O)c1ccnc(-c2cc(C(=O)O)cc([N+](=O)[O-])c2)c1Cl [Compound 1-100] | 5 (Level 5: growth control rate is above 85%)
Cn1nnnc1NC(=O)c1ccnc(-c2ccc(F)cc2Cl)c1Cl [Compound 1-94] | 5 (Level 5: growth control rate is above 85%)
CC(=O)c1ccc(-c2nccc(C(=O)Nc3nnnn3C)c2Cl)s1 [Compound 1-191] | 5 (Level 5: growth control rate is above 85%)
Cn1nnnc1NC(=O)c1ccnc(-c2ccccc2[N+](=O)[O-])c1Cl [Compound 1-38] | 5 (Level 5: growth control rate is above 85%)
Cn1nnnc1NC(=O)c1ccnc(-c2ccc(C#N)nn2)c1Cl [Compound 1-155] | 5 (Level 5: growth control rate is above 85%)
Cn1nnnc1NC(=O)c1ccnc(-c2cccc(Br)c2F)c1Cl [Compound 1-97] | 5 (Level 5: growth control rate is above 85%)
Cn1nnnc1NC(=O)c1ccnc(-c2ccc(Cl)c(Cl)c2)c1Cl [Compound 1-88] | 5 (Level 5: growth control rate is above 85%)

Test system: Descurainia sophia
Assay: Weeding effect in post-emergence stage
Format: in vivo
Conditions: active ingredient 2000 g/ha, 3 weeks after application, fresh weight control rate
In short: as §1

SMILES | Weeding effect, activity level (growth control rate), Descurainia sophia
C=CCc1c(C(=O)Nc2nnnn2C)ccnc1-c1ccc(F)cc1 [Compound 1-219] | 5 (Level 5: growth control rate is above 85%)
Cn1nnnc1NC(=O)c1ccnc(-c2ccc(C(=O)OC(C)(C)C)cc2)c1Cl [Compound 1-41] | 5 (Level 5: growth control rate is above 85%)
Cn1nnnc1NC(=O)c1ccnc(-c2cc(C(=O)O)cc([N+](=O)[O-])c2)c1Cl [Compound 1-100] | 5 (Level 5: growth control rate is above 85%)
Cn1nnnc1NC(=O)c1ccnc(-c2ccc(F)cc2Cl)c1Cl [Compound 1-94] | 5 (Level 5: growth control rate is above 85%)
CC(=O)c1ccc(-c2nccc(C(=O)Nc3nnnn3C)c2Cl)s1 [Compound 1-191] | 5 (Level 5: growth control rate is above 85%)
Cn1nnnc1NC(=O)c1ccnc(-c2ccccc2[N+](=O)[O-])c1Cl [Compound 1-38] | 5 (Level 5: growth control rate is above 85%)
Cn1nnnc1NC(=O)c1ccnc(-c2ccc(C#N)nn2)c1Cl [Compound 1-155] | 5 (Level 5: growth control rate is above 85%)
Cn1nnnc1NC(=O)c1ccnc(-c2cccc(Br)c2F)c1Cl [Compound 1-97] | 5 (Level 5: growth control rate is above 85%)
Cn1nnnc1NC(=O)c1ccnc(-c2ccc(Cl)c(Cl)c2)c1Cl [Compound 1-88] | 5 (Level 5: growth control rate is above 85%)
